Bounds are passed on as bounds.

The target in this assay is T1, human beta-2 receptor (Homo sapiens, UniProt P07550).
T1 construct: expressed in transfected cells; host or cells: Chinese hamster ovary cells (whole cells or membranes derived from them)
T1 sequence (P07550 whole entry): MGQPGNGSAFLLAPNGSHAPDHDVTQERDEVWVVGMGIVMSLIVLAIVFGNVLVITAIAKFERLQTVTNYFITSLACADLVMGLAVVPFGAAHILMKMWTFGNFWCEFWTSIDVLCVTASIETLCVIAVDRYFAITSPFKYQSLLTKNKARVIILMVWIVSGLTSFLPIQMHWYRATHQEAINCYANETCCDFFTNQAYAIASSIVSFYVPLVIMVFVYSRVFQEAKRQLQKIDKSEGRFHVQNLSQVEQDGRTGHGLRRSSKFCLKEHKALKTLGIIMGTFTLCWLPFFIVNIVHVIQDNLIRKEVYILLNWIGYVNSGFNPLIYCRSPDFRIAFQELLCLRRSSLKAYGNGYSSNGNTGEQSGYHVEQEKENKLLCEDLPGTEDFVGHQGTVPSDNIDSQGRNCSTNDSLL
The assay is described as follows: Chinese hamster ovary cells co-expressing the human receptor with a reporter gene, cAMP measurement in whole cells or membranes (Method 2). It is filed as cell-based. The note with it: CHO cells or membranes, read-out: pEC50 at the human beta-2 receptor (converted). The procedure: Potency of compounds of the invention at the human beta 2, 1 and 3 receptors was also determined using Chinese hamster ovary cells co-expressing the human receptor with a reporter gene. Studies were performed using either whole cells or membranes derived from those cells.
The three beta-receptors are coupled via the Gs G-protein to cause a simulation of adenylate cyclase resulting in increased levels of cAMP in the cell. For direct cAMP measurements either membranes or cells have been used with either the HitHunter enzyme fragment complementation kit (DiscoveRx) or the FP^2 fluorescence polarisation kit (Perkin Elmer) to quantify the levels of cAMP present. These assays provide a measure of agonist potency and intrinsic activity of the compounds at the various receptors. […]
In this assay the potency of compounds at the human beta-2 receptor is expressed as a pEC50 value. Compounds of examples 12-26, 28-50 and 52-64 had pEC50 values greather than 6. […] No result is available for the compound of example 51.
Turning to `CS(=O)(=O)c1cccc(CCCCOCc2cccc(CCNC[C@H](O)c3ccc(O)c(CO)c3)c2)c1` [Example 62, Formic acid compound with 2-(hydroxymethyl)-4-[(1R)-1-hydroxy-2-({2-[3-({4-[3-(methylsulfonyl)phenyl]butoxy}methyl)phenyl]ethyl}amino)ethyl]phenol (1:1)], the EC50 is under 1000 nM.

In the case of `OCc1cc([C@@H](O)CNCCc2cccc(COCCc3ccccc3F)c2)ccc1O` [Example 41, Formic acid compound with 4-((1R)-2-{[2-(3-{[2-(2-fluorophenyl)ethoxy]methyl}phenyl)ethyl]amino}-1-hydroxyethyl)-2-(hydroxymethyl)phenol (1:1)], the EC50 is under 1000 nM.

With `OCc1cc([C@@H](O)CNCCc2cccc(COCc3ccccc3F)c2)ccc1O` [Example 48, Formic acid compound with 4-((1R)-2-{[2-(3-{[(2-fluorobenzyl)oxy]methyl}phenyl)ethyl]amino}-1-hydroxyethyl)-2-(hydroxymethyl)phenol (1:1)], the EC50 is under 1000 nM.

Turning to `OCc1cc([C@@H](O)CNCCc2cccc(COCCCc3cccc(O)c3)c2)ccc1O` [Example 28, Formic acid compound with 4-((1R)-1-hydroxy-2-{[2-(3-{[3-(3-hydroxyphenyl)propoxy]methyl}phenyl)ethyl]amino}ethyl)-2-(hydroxymethyl)phenol (1:1)], the EC50 was under 1000 nM.

For the compound `NC(=O)c1cccc(COCCOCc2cccc(CCNC[C@H](O)c3ccc(O)c(CO)c3)c2)c1` [Example 52, Formic acid compound with 3-{[2-({3-[2-({(2R)-2-hydroxy-2-[4-hydroxy-3-(hydroxymethyl)phenyl]ethyl}amino)ethyl]benzyl}oxy)ethoxy]methyl}benzamide (1:1)], the EC50 was under 1000 nM.

On to `Cc1cc(C)cc(COCCOCc2cccc(CCNC[C@H](O)c3ccc(O)c(CO)c3)c2)c1` [Example 16, Formic acid compound with 4-[(1R)-2-({2-[3-({2-[(3,5-dimethylbenzyl)oxy]ethoxy}methyl)phenyl]ethyl}amino)-1-hydroxyethyl]-2-(hydroxymethyl)phenol (1:1)], for which the EC50 was under 1000 nM.

As for `OCc1cc([C@@H](O)CNCCc2cccc(COCCc3ccccc3O)c2)ccc1O` [Example 25, Formic acid compound with 4-((1R)-1-hydroxy-2-{[2-(3-{[2-(2-hydroxyphenyl)ethoxy]methyl}phenyl)ethyl]amino}ethyl)-2-(hydroxymethyl)phenol (1:1)], the EC50 was under 1000 nM.

Turning to `CS(=O)(=O)c1ccc(COCc2cccc(CCNC[C@H](O)c3ccc(O)c(CO)c3)c2)cc1` [Example 24, Formic acid compound with 2-(hydroxymethyl)-4-[(1R)-1-hydroxy-2-({2-[3-({[4-(methylsulfonyl)benzyl]oxy}methyl)phenyl]ethyl}amino)ethyl]phenol (1:1)], the EC50 was under 1000 nM.

With `OCc1cc([C@@H](O)CNCCc2cccc(COCCCc3c(Cl)cccc3Cl)c2)ccc1O` [Example 63, Formic acid compound with 4-((1R)-2-{[2-(3-{[3-(2,6-dichlorophenyl)propoxy]methyl}phenyl)ethyl]amino}-1-hydroxyethyl)-2-(hydroxymethyl)phenol (1:1)], the EC50 is under 1000 nM.

Take `NS(=O)(=O)c1cccc(COCc2cccc(CCNC[C@H](O)c3ccc(O)c(CO)c3)c2)c1` [Example 64, 3-[({3-[2-({(2R)-2-Hydroxy-2-[4-hydroxy-3-(hydroxymethyl)phenyl]ethyl}amino)ethyl]benzyl}oxy)methyl]benzenesulfonamide acetate]: the EC50 was under 1000 nM.

Regarding `N#Cc1cccc(COCc2cccc(CCNC[C@H](O)c3ccc(O)c(CO)c3)c2)c1` [Example 42, Formic acid compound with 3-[({3-[2-({(2R)-2-hydroxy-2-[4-hydroxy-3-(hydroxymethyl)phenyl]ethyl}amino)ethyl]benzyl}oxy)methyl]benzonitrile (1:1)], the EC50 was under 1000 nM.

For `[O-][S+](c1cccc(CCCCOCc2cccc(CCNC[C@H](O)c3ccc(O)c(CO)c3)c2)c1)C1CCCC1` (stereo partly drawn) [Example 36, Formic acid compound with 4-[(1R)-2-({2-[3-({4-[3-(cyclopentylsulfinyl)phenyl]butoxy}methyl)phenyl]ethyl}amino)-1-hydroxyethyl]-2-(hydroxymethyl)phenol (1:1)], the EC50 was under 1000 nM.

Take `C[C@H](OCc1cccc(CCNC[C@H](O)c2ccc(O)c(CO)c2)c1)c1ccccc1` [Example 45, Formic acid compound with 2-(hydroxymethyl)-4-[(1R)-1-hydroxy-2-({2-[3-({[(1S)-1-phenylethyl]oxy}methyl)phenyl]ethyl}amino)ethyl]phenol (1:1)]: the EC50 was under 1000 nM.

`OCc1cc([C@@H](O)CNCCc2cccc(COCCOCc3cccc(OC(F)(F)F)c3)c2)ccc1O` [Example 18, Formic acid compound with 2-(hydroxymethyl)-4-{(1R)-1-hydroxy-2-[(2-{3-[(2-{[3-(trifluoromethoxy)benzyl]oxy}ethoxy)methyl]phenyl}ethyl)amino]ethyl}phenol (1:1)]: the EC50 is under 1000 nM.

As to `OCc1cc([C@@H](O)CNCCc2cccc(COCCOc3ccccc3)c2)ccc1O` [Example 38, Formic acid compound with 2-(hydroxymethyl)-4-{(1R)-1-hydroxy-2-[(2-{3-[(2-phenoxyethoxy)methyl]phenyl}ethyl)amino]ethyl}phenol (1:1)], the EC50 is under 1000 nM.

As to `O=S(=O)(c1cccc(CCOCc2cccc(CCNC[C@H](O)c3ccc(O)c(CO)c3)c2)c1)C1CCCC1` [Example 60, Formic acid compound with 4-[(1R)-2-({2-[3-({2-[3-(cyclopentylsulfonyl)phenyl]ethoxy}methyl)phenyl]ethyl}amino)-1-hydroxyethyl]-2-(hydroxymethyl)phenol (1:1)], the EC50 was under 1000 nM.

On to `COc1cccc(COCCOCc2cccc(CCNC[C@H](O)c3ccc(O)c(CO)c3)c2)c1` [Example 17, Formic acid compound with 4-[(1R)-1-hydroxy-2-({2-[3-({2-[(3-methoxybenzyl)oxy]ethoxy}methyl)phenyl]ethyl}amino)ethyl]-2-(hydroxymethyl)phenol (1:1)], for which the EC50 is under 1000 nM.

With `N#Cc1cccc(COCCOCc2cccc(CCNC[C@H](O)c3ccc(O)c(CO)c3)c2)c1` [Example 13, Formic acid compound with 3-{[2-({3-[2-({(2R)-2-hydroxy-2-[4-hydroxy-3-(hydroxymethyl)phenyl]ethyl}amino)ethyl]benzyl}oxy)ethoxy]methyl}benzonitrile (1:1)], the EC50 is under 1000 nM.

For the compound `N#Cc1cccc(CCCCOCc2cccc(CCNC[C@H](O)c3ccc(O)c(CO)c3)c2)c1` [Example 37, Formic acid compound with 3-[4-({3-[2-({(2R)-2-hydroxy-2-[4-hydroxy-3-(hydroxymethyl)phenyl]ethyl}amino)ethyl]benzyl}oxy)butyl]benzonitrile (1:1)], the EC50 was under 1000 nM.

As to `O=S(=O)(c1cccc(COCCOCc2cccc(CCNC[C@H](O)c3ccc(O)c(CO)c3)c2)c1)C1CCCC1` [Example 33, Formic acid compound with 4-{(1R)-2-[(2-{3-[(2-{[3-(cyclopentylsulfonyl)benzyl]oxy}ethoxy)methyl]phenyl}ethyl)amino]-1-hydroxyethyl}-2-(hydroxymethyl)phenol (1:1)], the EC50 was under 1000 nM.

Consider `N#Cc1ccc(CCCOCc2cccc(CCNC[C@H](O)c3ccc(O)c(CO)c3)c2)cc1` [Example 20, Formic acid compound with 4-[3-({3-[2-({(2R)-2-hydroxy-2-[4-hydroxy-3-(hydroxymethyl)phenyl]ethyl}amino)ethyl]benzyl}oxy)propyl]benzonitrile (1:1)], for which the EC50 was under 1000 nM.

In the case of `N#Cc1cccc(CCCOCc2cccc(CCNC[C@H](O)c3ccc(O)c(CO)c3)c2)c1` [Example 22, Formic acid compound with 3-[3-({3-[2-({(2R)-2-hydroxy-2-[4-hydroxy-3-(hydroxymethyl)phenyl]ethyl}amino)ethyl]benzyl}oxy)propyl]benzonitrile (1:1)], the EC50 is under 1000 nM.

In the case of `[O-][S+](c1cccc(COCCOCc2cccc(CCNC[C@H](O)c3ccc(O)c(CO)c3)c2)c1)C1CCCC1` (stereo partly drawn) [Example 34, Formic acid compound with 4-{(1R)-2-[(2-{3-[(2-{[3-(cyclopentylsulfinyl)benzyl]oxy}ethoxy)methyl]phenyl}ethyl)amino]-1-hydroxyethyl}-2-(hydroxymethyl)phenol (1:1)], the EC50 was under 1000 nM.

Take `NS(=O)(=O)c1cccc(CCCOCc2cccc(CCNC[C@H](O)c3ccc(O)c(CO)c3)c2)c1` [Example 56, Formic acid compound with 3-[3-({3-[2-({(2R)-2-hydroxy-2-[4-hydroxy-3-(hydroxymethyl)phenyl]ethyl}amino)ethyl]benzyl}oxy)propyl]benzenesulfonamide (1:1)]: the EC50 was under 1000 nM.

In the case of `OCc1cc([C@@H](O)CNCCc2cccc(COCc3c(Cl)cccc3Cl)c2)ccc1O` [Example 47, Formic acid compound with 4-((1R)-2-{[2-(3-{[(2,6-dichlorobenzyl)oxy]methyl}phenyl)ethyl]amino}-1-hydroxyethyl)-2-(hydroxymethyl)phenol (1:1)], the EC50 is under 1000 nM.

Regarding `NC(=O)c1cccc(COCc2cccc(CCNC[C@H](O)c3ccc(O)c(CO)c3)c2)c1` [Example 53, Formic acid compound with 3-[({3-[2-({(2R)-2-hydroxy-2-[4-hydroxy-3-(hydroxymethyl)phenyl]ethyl}amino)ethyl]benzyl}oxy)methyl]benzamide (1:1)], the EC50 is under 1000 nM.

The values above are taken from patent publication US20070135490A1, “Phenetanolamine derivatives” (priority 2003, published 2007).
